What was measured:
healthy subjects = assay: Single dose study in healthy subjects (18P-MC-OXAA), safety and tolerability; assay type: in vivo, human
Method: In another aspect of the present invention, provided is a pharmaceutical composition for reducing a uric acid level in a patient, comprising a compound of formula (I) or a pharmaceutically acceptable salt thereof, and at least one pharmaceutically acceptable carrier.
A single dose study in healthy subjects (18P-MC-OXAA): a single center, double-blind, randomized, placebo-controlled SAD study has been completed (ascending doses of 0.03 mg, 0.1 mg, 0.3 mg, 1.0 mg, 2.5 mg, and 5.0 mg), which mainly assessed the safety, tolerability, and PK/PD profile of mazdutide in healthy subjects.

[1] = Solubility of the investigational product; assay type: physicochemical; details: 20 mM tris(hydroxymethyl)aminomethane solutions and 150 mM NaCl solutions with pH 8.0
patients with diabetes = assay: Safety assessment in patients with type 2 diabetes (12-week dose escalation); assay type: in vivo, human
Method: (§1) Mazdutide and placebo were both administered subcutaneously once weekly. The doses were prepared and administered by study nurses according to the manual instructions of the study drugs. • 1.5 Inclusion criteria
(§2) In this study, the enrollment of 42 patients with type 2 diabetes with uncontrolled glycosylated hemoglobin despite at least 2 months of lifestyle intervention or treatment with a stable dose of metformin (≥1000 mg/day or the maximum tolerated dose). Three cohorts were included in this study: cohort 1 (n=14), cohort 2 (n=14), and cohort 3 (n=14). Subjects in each cohort were randomized in an 8:4:2 ratio into the mazdutide treatment group (n=8), the placebo group (n=4), and the dulaglutide 1.5 mg treatment group (n=2). In cohorts 1, 2, and 3, the active control drug, dulaglutide, was administered at 1.5 mg QW for 12 weeks, and the dosing regimens for mazdutide and placebo are described below:
(§3) Cohort 1: Subjects were administered with a starting dose of 1.0 mg once weekly for 4 weeks. If the treatment was well tolerated*, the dose was adjusted to 2.0 mg, and was administered once weekly for 4 weeks. If the treatment was well tolerated*, the dose was adjusted to 3.0 mg, and was administered once weekly for 4 weeks. (ascending at a rate of 1 mg/4 weeks to the target dose).
(§4) Cohort 2: Subjects were administered with a starting dose of 1.5 mg once weekly for 4 weeks.
If the treatment was well tolerated*, the dose was adjusted to 3.0 mg, and was administered once weekly for 4 weeks. If 3.0 mg was not well tolerated but still met the tolerance criteria, the next dose was investigated in cohort 2 (backup 1): if the dose was well tolerated, the study proceeded to 4.5 mg. The treatment was given once weekly for 4 weeks, if 4.5 mg was not well tolerated but still met the tolerance criteria, the next dose was investigated in cohort 2 (backup 2). (ascending at a rate of 1.5 mg/4 weeks to the target dose).
Cohort 2 (backup 2): If 4.5 mg was not tolerated, the treatment should be discontinued for 1 week and resumed at the dose of 3.75 mg for 2 weeks until the end of study. […]

[2] = Stability of the drug substance; assay type: physicochemical; details: ≤−20° C.
[3] = system: patients with obesity or overweight; assay: Safety assessment in patients with obesity or overweight (12-week dose escalation); assay type: in vivo, human
Method: as §1
I. Subjects with obesity or overweight meeting all of the following criteria were included in the study: • 1. Aged 18-75 years (inclusive), male or female: • 2. For obesity, BMI≥28.0 kg/m^2: for overweight, 24≤ BMI<28.0 kg/m^2 with at least one of the following: i, increased appetite, intolerable hunger before meals, and increased food consumption: ii, comorbidity with one or more of pre-diabetes (impaired fasting glucose and/or impaired glucose tolerance), hypertension, dyslipidemia (see appendix 4 for reference criteria), and fatty liver (within 6 months before the screening); iii, comorbidity with weight-bearing joint pain: iv, obesity-related dyspnea or obstructive sleep apnea syndrome: • 3. Weight change<5% after at least 12 weeks of diet/exercise weight control at the time of screening
In this study, the enrollment of 36 patients with overweight or obesity having a weight change of less than 5% after at least 12 weeks of diet/exercise control was planned. Three cohorts were included in this double-blind study: cohort 1 (n=12), cohort 2 (n=12), and cohort 3 (n=12). Subjects in each cohort were randomized in a 2:1 ratio into the mazdutide treatment group (n=8) and the placebo group (n=4). The subcutaneous dosing regimens for mazdutide or placebo in cohort 1, cohort 2 and cohort 3, are described below (as shown in FIG. 1):
as §3
Cohort 2: Subjects were administered with a starting dose of 1.5 mg once weekly for 4 weeks. If the treatment was well tolerated*, the dose was adjusted to 3.0 mg, and was administered once weekly for 4 weeks. If the treatment was well tolerated*, the dose was adjusted to 4.5 mg, and was administered once weekly for 4 weeks (ascending at a rate of 1.5 mg/4 weeks to the target dose).
Cohort 3: Treatment in cohort 3 was started when the 4-week treatment at 1.5 mg was completed and well tolerated in the subjects in cohort 2: if 1.5 mg was not tolerated in cohort 2, 2.0 mg and higher doses were not investigated in cohort 3. In this cohort, subjects were administered with a starting dose of 2.0 mg once weekly for 4 weeks. If the treatment was well tolerated*, the dose was adjusted to 4.0 mg, and was administered once weekly for 4 weeks. If the treatment was well tolerated*, the dose was adjusted to 6.0 mg, and was administered once weekly for 4 weeks. (ascending at a rate of 2 mg/4 weeks to the target dose).
For patients with obesity or overweight: By Mar. 15, 2021, 36 subjects were enrolled and 36 were included in the analysis. […] Only 2 patients in cohort 1 had mild urticaria. […] The gastrointestinal events occurred at a higher rate in the treatment group than in the placebo group, which complies with the mechanism of action of the drug.

uric acid = assay: Change in uric acid from baseline in subjects with type 2 diabetes; assay type: in vivo, human; details: 1.5 mg QW for 12 weeks, day 85 post-dose vs baseline, N = 6
Method: FIG. 3 illustrates the change in uric acid from baseline after administration in subjects with diabetes.
as §2, §3, §4
If the treatment was well tolerated*, the dose was adjusted to 3.0 mg, and was administered once weekly for 4 weeks. […]

## CC(C)C[C@H](NC(=O)[C@H](CC(C)C)NC(=O)[C@H](Cc1c[nH]c2ccccc12)NC(=O)[C@H](CCC(=O)O)NC(=O)[C@@H](NC(=O)[C@H](Cc1ccccc1)NC(=O)[C@H](CCC(=O)O)NC(=O)[C@H](CCCCNC(=O)COCCOCCNC(=O)COCCOCCNC(=O)CC[C@H](NC(=O)CCCCCCCCCCCCCCCCCCC(=O)O)C(=O)O)NC(=O)[C@H](C)NC(=O)[C@H](CCCCN)NC(=O)[C@H](CCCCN)NC(=O)[C@H](CCC(=O)O)NC(=O)[C@H](CC(=O)O)NC(=O)[C@H](CC(C)C)NC(=O)[C@H](Cc1ccc(O)cc1)NC(=O)[C@H](CCCCN)NC(=O)[C@H](CO)NC(=O)[C@H](Cc1ccc(O)cc1)NC(=O)[C@H](CC(=O)O)NC(=O)[C@H](CO)NC(=O)[C@@H](NC(=O)[C@H](Cc1ccccc1)NC(=O)[C@@H](NC(=O)CNC(=O)[C@H](CCC(N)=O)NC(=O)C(C)(C)NC(=O)[C@@H](N)Cc1c[nH]cn1)[C@@H](C)O)[C@@H](C)O)C(C)C)C(=O)N[C@@H](CCC(=O)O)C(=O)NCC(=O)NCC(=O)N1CCC[C@H]1C(=O)N[C@@H](CO)C(=O)N[C@@H](CO)C(=O)NCC(N)=O [mazdutide]
Healthy subjects; healthy subjects, dose ascended to 2.5 mg
  tolerability: tolerated
Healthy subjects; healthy subjects, dose ascended to 5 mg
  subjects with gastrointestinal-related AEs (mainly nausea and vomiting): 6 subjects
Healthy subjects; healthy subjects, single ascending doses 0.03-5.0 mg
  maximum tolerated dose (MTD) for single-dose administration: 2.5 mg
Healthy subjects; single-dose and multi-dose escalation studies in healthy populations
  safety and tolerability: good safety and tolerability
[1]
  solubility: ≥ 10000 µg/mL
Patients with diabetes
  acute pancreatitis, severe hypoglycemia, allergic reaction or injection site reaction: no acute pancreatitis, severe hypoglycemia, allergic reaction or injection site reaction
  dose escalation termination-related AEs: no dose escalation termination-related AEs
Patients with diabetes; sc once weekly, 12 weeks
  overall safety and tolerance: good overall safety and tolerance
[2]
  Stability: The drug substance is stable at ≤−20 °C
[3]
  SAEs: no SAEs
  acute pancreatitis: no acute pancreatitis
  discontinuation or withdrawal due to AEs: no discontinuation or withdrawal due to AEs
  dose escalation termination-related AEs: no dose escalation termination-related AEs
  hypoglycemia events: no hypoglycemia events
  severe adverse events: no severe adverse events
[3]; cohort 1 (1 mg-2 mg-3 mg)
  patients with mild urticaria: 2 patients
[3]; sc once weekly, 12 weeks
  overall safety and tolerance: good overall safety and tolerance
[3]; treatment group
  anorexia rate of occurrence: 29.2%
  diarrhea rate of occurrence: 25%
  nausea rate of occurrence: 16.7%
[3]; treatment group, 15/24 cases
  Gastrointestinal adverse events rate: 62.5%
[3]; versus placebo group
  average heart rate: increase in average heart rate over the placebo group

## Dulaglutide
Uric acid
  Uric acid Mean of change: 16.67 µmol/L

Source: patent US20240293513A1, “USE OF MAZDUTIDE” (INNOVENT BIOLOGICS (SUZHOU) CO., LTD., priority 2021, published 2024)
